From patent US20180104336A1, “Method of Increasing Radiation Sensitivity of Tumor Cells” (priority 2016, published 2018)
“Also recorded” adds a separate entry of the source.

Experiments:
A549 cells [1] = test: GSHE experiment: cell viability and toxicity with 10 μM BPTES
Protocol: (§1) [^13C5]-glutamine experiments: To determine the fraction of glutathione that is derived directly from glutamine, A549 and H460 cell lines were cultured in 96-well plates in glutamine-free medium supplemented with 0.3 g/L [^13C5]-glutamine. Cell media aliquots were harvested at 12, 24, 36, and 48 hrs. Light microscopy was used at 12 hours to visualize the cells at each dosage. After 48 hours the CellTiter 96, CellTiter-Glo® 2.0, and CellTox™ Green Cytotoxicity assays, (Promega, Madison, Wis.) were utilized to respectively assess cell proliferation, cell viability, and cell death of both the BPTES and [^13C5]-glutamine experiments.
(§2) Glutathione-monoethyl ester (GSHE) experiments: Cells (7500) were seeded into 96 well plates containing 100 μl complete media. Cells were treated with 10 μM BPTES in DMSO and 0, 1, 5 and 10 mM GSHE. After 48 hrs cells were harvested and cell viability and toxicity were assessed as described above.

H460 cells [2] = test: as above
Protocol: as §1, §2

[3] = system: H460 and A549 lung tumor cells; test: Glutathione synthesis and excretion after GLS inhibition, cell lines not separated; format: cell-based, human; settings: for fold more effective in depletion of glutathione: compared with 100 to 10,000 μM buthionine sulfoximine reported previously; for glutathione synthesis and excretion: in vitro
Protocol: GLS inhibition experiments: In the mechanistic experiments with BPTES or CB-839, cells (7500) were seeded (Time—24 hrs) into 96-well plates containing 100 μl complete medium, and allowed to attach for 24 hrs. […] Media aliquots of 25 μl were removed from each well at 24, 36, and 48 hrs to monitor the time course of metabolite consumption and production (metabolomic footprint). Cells were maintained at 37° C., 5% CO2 and 40% humidity until time of harvest. Cell viability was determined using Cell Glow, Cell TOX or MTT assays according to manufacture descriptions.
LC-MS quantitation by liquid chromatography tandem mass spectrometry (LC-MS/MS): Metabolites were extracted from cell pellets by the addition of 3 ml of 50% methanol/0.2% formic acid to the frozen cells in the culture flasks. Cells were scraped from the culture flasks and transferred to 15 ml tubes. Proteins were precipitated from 750 μl cell pellet suspensions by addition of 1050 μl acetonitrile/0.2% formic acid. Metabolites were extracted from 25 or 100 μl culture media from 96 well plates or 25-T flasks, respectively, and with the respective addition of 275 μl or 1300 μl of 40% methanol/60% acetonitrile/0.2% formic acid. Cell pellets or media suspensions were incubated on ice for 30 min, followed by centrifugation for 10 min at 13000 g. Supernatants were transferred to new vials, solvents were removed in a speed vac and the concentrated metabolites stored at -80° C. until analysis.
Samples were reconstituted in 0.2% formic acid and analyzed by LC-MS/MS (Agilent, 1290 Infinity LC coupled to an Agilent 6490 triple quadrupole mass analyzer). An Agilent Poroshell 2.7 μm C18 (2.1 mm×100 mm) column was operated with a linear gradient from 2% Methanol/0.01% formic acid to 95% Methanol/0.01% formic acid in 10 min. Individual metabolites were monitored in multiple reactions monitoring mode, monitoring specific ion transitions shown in Table 1. The specific ion transitions and retention times for each metabolite were established experimentally using commercially available standard compounds. Quantitation of the individual metabolites were based on external calibration curves that were generated with each set of samples. In the stable isotope tracing experiment, ^13C5-incorporation into subsequent metabolites was determined by monitoring the corresponding m/z ion transitions (Table 1).

[4] = system: H460 and A549 lung tumor cells; format: cell-based; settings: for cell proliferation and viability: FIG. 4 and FIG. 8
Protocol: Media aliquots of 25 μl were removed from each well at 24, 36, and 48 hrs to monitor the time course of metabolite consumption and production (metabolomic footprint). Cells were maintained at 37° C., 5% CO2 and 40% humidity until time of harvest. Cell viability was determined using Cell Glow, Cell TOX or MTT assays according to manufacture descriptions.
Cells were seed in 6-well and allowed to attach for 1 day.
as §1
(§3) Radiation exposure of lung tumor cell lines: Radiation sensitivity was determined by methods described previously. In brief, for colony formation, A549 and H460 cells were seeded in 6-well plates containing 3 ml standard complete medium and allowed to attach for 24 h. Media were changed and cells were grown for another 24 h in standard medium, glutamine-free medium, medium containing 2 μM BPTES (to deplete glutathione), and medium containing only the vehicle. Cells were subsequently radiated using a Faxitron X-ray Generating System (CP-160, Faxitron X-Ray Corp., Wheeling, Ill.). Single-doses of 4 or 8 Gy (Gray) were delivered at a dose rate of 1 Gy/min (150 kVp and 6.6 mA). Cells were then placed in standard complete RPMI medium and allowed to form colonies for 8 days. The surviving colonies (containing >˜50 cells) were stained and counted on a stereomicroscope. Plating efficiency (PE) of cells with each treatment were determined and normalized to that of control untreated cells and the surviving fractions were calculated by dividing the PE of the treated cells by the PE of the control untreated cells.

H460 cell-derived tumors = test: H460 mouse xenograft, tumor volume with and without radiation; format: in vivo, nude mice
Source text: METHOD: Mouse xenograft experiments. For the first in vivo study, H460 cell-derived tumors were engrafted on the hind flank of 20 male. […] (1) control (2) CB-839, (3) 18 Gy radiation and (4) CB-839 plus 18 Gy radiation. For the second in vivo experiment, H460 cell-derived tumors were engrafted on the hind flank of 50 female nude mice. […] (1) Vehicle only, (2) 2 Gy radiation, (3) 4 Gy radiation, (4) 8 Gy radiation, (5) 12 Gy radiation, (6) Vehicle only plus CB-839, (7) 2 Gy radiation plus CB-839, (8) 4 Gy radiation plus CB-839, (9) […], (10) 12 Gy radiation plus CB-839. CB-839 was given three times at 20 mg/kg by oral gavage at 28, 16 and 4 hrs prior to a single dose of 18 Gy radiation. CB-839 was administered by oral gavage as solution of 200 mg/kg CB-839 in 200 ul 25% (w/v) hydroxypropyl-b-cyclodextrin in 10 mmol/[…], pH 2 or 25% (w/v) hydroxypropyl- b-cyclodextrin in 10 mmol/L citrate, pH 2. Thirty minutes prior to radiation treatment, 50 μl blood was taken form tail vein and serum was analyzed for reduced and oxidized GSH by LC-MS. Radiation was given as a single 1Gy/min dose for 2, 4, 8, 12, or 18 min respectively. Tumor volume measurements were repeated at the indicated days until termination of the animals. Tumor volume was computed by multiplying “a” times (“a” X “b”)/2. The “Mean tumor volumes” and “Relative tumor volume” for male and female mice are graphed in FIGS. 9A-B and FIGS. 10A-F, respectively.

[5] = system: total glutathione in serum; test: Total glutathione (reduced plus oxidized) in serum by LC-MS at day of radiation; format: in vivo, nude mice
Protocol: CB-839 was given three times at 20 mg/kg by oral gavage at 28, 16 and 4 hrs prior to a single dose of 18 Gy radiation. CB-839 was administered by oral gavage as solution of 200 mg/kg CB-839 in 200 ul 25% (w/v) hydroxypropyl-b-cyclodextrin in 10 mmol/Lcitrate, pH 2 or 25% (w/v) hydroxypropyl- b-cyclodextrin in 10 mmol/L citrate, pH 2. Thirty minutes prior to radiation treatment, 50 μl blood was taken form tail vein and serum was analyzed for reduced and oxidized GSH by LC-MS. Radiation was given as a single 1Gy/min dose for 2, 4, 8, 12, or 18 min respectively. Tumor volume measurements were repeated at the indicated days until termination of the animals. Tumor volume was computed by multiplying “a” times (“a” X “b”)/2. The “Mean tumor volumes” and “Relative tumor volume” for male and female mice are graphed in FIGS. 9A-B and FIGS. 10A-F, respectively.

A549 cells [6] = test: Radiation sensitivity by clonogenic assay; format: cell-based, human; settings: 2 μM BPTES 24 h, 4 Gy and 8 Gy, p<0.001
Protocol: as §3

H460 cells [7] = test: Radiation sensitivity by clonogenic assay; format: cell-based, human; settings: 2 μM BPTES 24 h, 4 Gy and 8 Gy, p<0.001
Protocol: as §3

A549 cells [8] = test: GLS inhibition experiment, bright field images of cell death; format: cell-based, human; settings: 10, 20, 40 and 100 μM, 48 hrs
Protocol: (§4) GLS inhibition experiments: In the mechanistic experiments with BPTES or CB-839, cells (7500) were seeded (Time—24 hrs) into 96-well plates containing 100 μl complete medium, and allowed to attach for 24 hrs. Complete medium was added (Time 0 hrs) containing various concentrations of GLS inhibitors to give the final concentrations of 0.001 to 100 μM. Media aliquots of 25 μl were removed from each well at 24, 36, and 48 hrs to monitor the time course of metabolite consumption and production (metabolomic footprint). Cells were maintained at 37° C., 5% CO2 and 40% humidity until time of harvest. Cell viability was determined using Cell Glow, Cell TOX or MTT assays according to manufacture descriptions.

H460 cells [9] = test: as above; format: cell-based, human; settings: 10, 20, 40 and 100 μM, 48 hrs
Protocol: as §4

[10] = male nude mice, day #17, CB-839 20 mg/kg oral gavage 28, 16 and 4 hrs before 18 Gy

Compound: CCOC(=O)CNC(=O)[C@H](CS)NC(=O)CC[C@H](N)C(=O)O [GSHE, Glutathione-monoethyl ester]
- protection against BPTES-induced cytotoxicity (A549 cells [1]; 1-10 mM GSHE with 10 μM BPTES): dose-dependent protection
- protection against BPTES-induced cytotoxicity (H460 cells [2]; 1-10 mM GSHE with 10 μM BPTES): dose-dependent protection

Compound: O=C(Cc1cccc(OC(F)(F)F)c1)Nc1ccc(CCCCc2nnc(NC(=O)Cc3ccccn3)s2)nn1 [CB-839]
- fold more effective in depletion of glutathione [3]: at least 1000 fold
- glutathione synthesis and excretion [3]: successfully depletes glutathione synthesis and excretion; also recorded: abolished glutathione excretion
- cell proliferation and viability [4]: reduced cell proliferation and viability
- sensitivity to ionizing radiation in vitro ([4]; in vitro): increase sensitivity to ionizing radiation
- response to radiation treatment improved, based on tumor volume over time (H460 cell-derived tumors; H460 xenograft, short term (3 times) CB-839): more than 25%
- efficacy of short term CB-839 alone (H460 cell-derived tumors; H460 xenograft, short term (3 times) CB-839, no radiation): does not show efficacy
- tumor growth, CB-839 alone (H460 cell-derived tumors; female nude mice, 3 doses orally every 12 hrs): did not affect the tumor growth
- accelerated tumor growth caused by 2 Gy radiation (H460 cell-derived tumors; female nude mice, CB-839 plus 2 Gy): prevented
- mean tumor size smaller, CB-839 plus radiation compared to CB-839 alone (H460 cell-derived tumors; [10]): 90%
- mean tumor size smaller, CB-839 plus radiation compared to radiation alone (H460 cell-derived tumors; [10]): 20%
- tumor growth, CB-839 alone compared to control (H460 cell-derived tumors; male nude mice, three CB-839 treatments): did not affect subsequent tumor growth
- total glutathione in blood lower ([5]; female nude mice, time of radiation, three doses of 200 mg/Kg/bw at 28, 16 and 4 hrs earlier): 53%
- serum glutathione reduced ([5]; in vivo, short term treatment): > 50%
- total GSH in serum lower compared to none treated mice ([5]; male nude mice, day #12 prior to radiation, CB-839 three times): 56%

Compound: O=C(Cc1ccccc1)Nc1nnc(CCSCCc2nnc(NC(=O)Cc3ccccc3)s2)s1 [BPTES, Bis-2-(5-phenyl-acetamido-1,3,4-thiadiazol-2-yl) ethyl sulfide]
- concentration at which glutathione excretion was essentially abolished ([3]; FIG. 4, H460 and A549): > 5 µM
- fold more effective in depletion of glutathione [3]: ≥ 100 fold
- glutathione synthesis and excretion [3]: abolished glutathione excretion
- cell viability (A549 cells [1]; 10 μM BPTES, 48 hrs): reduced viability
- cell viability (H460 cells [2]; 10 μM BPTES, 48 hrs): reduced viability
- radiation response, colony formation compared to control cells (A549 cells [6]): radiation-induced reduction in colony formation
- radiation response, colony formation compared to control cells (H460 cells [7]): radiation-induced reduction in colony formation
- cell death, visual (A549 cells [8]): visual increase in cell death
- cell death, visual (H460 cells [9]): visual increase in cell death
- cell proliferation and viability [4]: reduced cell proliferation and viability
- cell growth ([4]; FIGS. 4A-4C): significant growth inhibition
